By kinact is commonly meant the rate constant of inactivation at saturating inhibitor.

Series [1] addresses T1, CYP2D6 (Homo sapiens, UniProt P10635). The series can be described thus: (§1) Mechanism based inhibition of human cytochrome P450 2D6 measured by bufurarol hydroxylation using liver microsomes. To be noted: probe bufurarol. It counts as ADME, Microsome. A general note: Liver microsomes are vesicles of endoplasmic reticulum, rich in cytochrome P450 enzymes.
For series [2], the target named is T2, Cytochrome P450 2D6 (Homo sapiens, UniProt P10635). Described as §1. It counts as ADME, Microsome.
For series [3], the target named is T3, Cytochrome P450 3A4 (Homo sapiens, UniProt P08684). Briefly: Mechanism based inhibition of human cytochrome P450 3A4, partition ratio. It counts as ADME.
Series [4] concerns the target T4, CYP3A4 (Homo sapiens, UniProt P08684). Briefly: (§2) Mechanism based inhibition of human cytochrome P450 3A4 measured by DBF fluorescence. Type of series: ADME. Conditions: human, probe DBF.
The target in series [5] is T3, Cytochrome P450 3A4. Described as §2. It counts as ADME.
For series [6], the target named is T4, CYP3A4. The series can be described thus: (§3) Mechanism based inhibition of human cytochrome P450 3A4 measured by testosterone 6-beta hydroxylation. It counts as ADME. Conditions: human, probe testosterone (6-beta hydroxylation).
Series [7] deals with T3, Cytochrome P450 3A4. The series is described as §3. It counts as ADME.
The target of series [8] is T3, Cytochrome P450 3A4. Briefly: (§4) Mechanism based inhibition of human cytochrome P450 3A4. Type of series: ADME.
Series [9] deals with T1, CYP2D6. Briefly: (§5) Mechanism based inhibition of human cytochrome P450 2D6 measured by […] 1'-hydroxylation. To be noted: human, probe bufurarol. It counts as ADME.
The target of series [10] is T2, Cytochrome P450 2D6. Described as §5. It counts as ADME.
Another series concerns the target Cytochrome P450 2C9 (Homo sapiens, UniProt P11712). The series can be described thus: Mechanism based inhibition of human cytochrome P450 2C9 measured by tienilic acid 5-hydroxylation. Type of series: ADME.
Series [11] has as its target T5, Cytochrome P450 2C8 (Homo sapiens, UniProt P10632).
T5 sequence (P10632 whole entry): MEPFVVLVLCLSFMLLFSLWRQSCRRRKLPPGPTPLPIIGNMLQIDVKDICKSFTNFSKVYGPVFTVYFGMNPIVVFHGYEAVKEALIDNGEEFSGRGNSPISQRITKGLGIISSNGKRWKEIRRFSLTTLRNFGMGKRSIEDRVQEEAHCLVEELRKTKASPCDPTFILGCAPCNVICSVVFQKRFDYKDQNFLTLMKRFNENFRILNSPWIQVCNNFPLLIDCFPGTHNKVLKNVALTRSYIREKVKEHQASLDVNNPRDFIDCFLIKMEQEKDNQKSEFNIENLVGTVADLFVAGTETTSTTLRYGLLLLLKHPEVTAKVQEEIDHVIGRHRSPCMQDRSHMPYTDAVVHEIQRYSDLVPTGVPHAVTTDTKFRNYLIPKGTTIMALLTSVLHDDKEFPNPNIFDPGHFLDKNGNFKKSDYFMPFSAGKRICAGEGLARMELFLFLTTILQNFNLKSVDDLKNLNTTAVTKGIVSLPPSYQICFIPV
Description: (§8) Mechanism based inhibition of human cytochrome P450 2C8 measured by paclitaxel hydroxylation using a recombinant system

Series [12] concerns the target T6, CYP2C8 (Homo sapiens, UniProt P10632).
T6 sequence (P10632 whole entry): T5 sequence (P10632 whole entry)
The series can be described thus: in vitro. Conditions: human liver microsomes, probe paclitaxel.
Description: (§9) Mechanism based inhibition of human cytochrome P450 2C8 measured by paclitaxel hydroxylation using human liver microsomes

For series [13], the target named is T5, Cytochrome P450 2C8. This is another data set of the same source.
Description: as §9
Series [14] deals with T6, CYP2C8. The series can be described thus: in vitro. To be noted: recombinant CYP2C8, probe paclitaxel.
Description: as §8
The target of series [15] is T1, CYP2D6. The series can be described thus: (§6) Mechanism based inhibition of human cytochrome P450 2D6 measured by dextromethorphan O-demethylation. Conditions: human, probe dextromethorphan.
Series [16] has as its target T2, Cytochrome P450 2D6. The description is as §6.
The target of series [17] is T3, Cytochrome P450 3A4. The series can be described thus: Mechanism based inhibition of human cytochrome P450 3A4 measured by midazolam hydroxylation in vivo. It counts as ADME, organism-based.
Series [18] has as its target T3, Cytochrome P450 3A4. The description is as §4. Type of series: ADME. This is another data set of the same source.
For series [19], the target named is T4, CYP3A4. Briefly: (§7) Mechanism based inhibition of human cytochrome P450 3A4 measured by N-demethylation of erythromycin. Type of series: ADME. To be noted: human, probe erythromycin (N-demethylation).
Series [20] has as its target T3, Cytochrome P450 3A4. The description is as §7. It counts as ADME.

T2 sequence (P10635 whole entry): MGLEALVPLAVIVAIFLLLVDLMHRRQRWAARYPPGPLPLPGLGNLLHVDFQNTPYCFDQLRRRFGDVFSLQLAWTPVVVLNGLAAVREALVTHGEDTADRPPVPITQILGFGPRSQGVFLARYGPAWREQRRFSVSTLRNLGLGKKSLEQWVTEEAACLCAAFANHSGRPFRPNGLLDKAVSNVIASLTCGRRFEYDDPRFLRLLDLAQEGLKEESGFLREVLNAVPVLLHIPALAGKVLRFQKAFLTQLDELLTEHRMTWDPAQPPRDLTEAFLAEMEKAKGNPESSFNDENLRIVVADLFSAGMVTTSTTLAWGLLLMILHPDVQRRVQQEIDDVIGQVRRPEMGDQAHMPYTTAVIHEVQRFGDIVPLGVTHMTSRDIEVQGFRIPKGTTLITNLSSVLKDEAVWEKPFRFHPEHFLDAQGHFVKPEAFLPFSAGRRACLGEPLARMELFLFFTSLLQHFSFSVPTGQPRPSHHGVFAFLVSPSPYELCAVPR
T1 sequence (P10635 whole entry): as above
T3 sequence (P08684 whole entry): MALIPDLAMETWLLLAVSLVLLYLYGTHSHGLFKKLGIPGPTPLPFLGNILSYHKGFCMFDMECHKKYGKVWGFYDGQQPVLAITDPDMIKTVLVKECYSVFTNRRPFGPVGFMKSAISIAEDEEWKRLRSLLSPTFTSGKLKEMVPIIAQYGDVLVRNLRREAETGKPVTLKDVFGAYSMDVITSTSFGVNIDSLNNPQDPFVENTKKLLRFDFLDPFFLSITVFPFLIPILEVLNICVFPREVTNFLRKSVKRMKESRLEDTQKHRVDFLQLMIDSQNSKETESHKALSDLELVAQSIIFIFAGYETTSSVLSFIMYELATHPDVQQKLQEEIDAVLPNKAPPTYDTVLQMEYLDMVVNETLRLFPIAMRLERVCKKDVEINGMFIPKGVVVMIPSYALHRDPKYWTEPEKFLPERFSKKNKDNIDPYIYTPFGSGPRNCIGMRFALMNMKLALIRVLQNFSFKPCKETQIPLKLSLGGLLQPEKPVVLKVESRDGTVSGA
T4 sequence (P08684 whole entry): as above
Cytochrome P450 2C9, sequence (P11712 whole entry): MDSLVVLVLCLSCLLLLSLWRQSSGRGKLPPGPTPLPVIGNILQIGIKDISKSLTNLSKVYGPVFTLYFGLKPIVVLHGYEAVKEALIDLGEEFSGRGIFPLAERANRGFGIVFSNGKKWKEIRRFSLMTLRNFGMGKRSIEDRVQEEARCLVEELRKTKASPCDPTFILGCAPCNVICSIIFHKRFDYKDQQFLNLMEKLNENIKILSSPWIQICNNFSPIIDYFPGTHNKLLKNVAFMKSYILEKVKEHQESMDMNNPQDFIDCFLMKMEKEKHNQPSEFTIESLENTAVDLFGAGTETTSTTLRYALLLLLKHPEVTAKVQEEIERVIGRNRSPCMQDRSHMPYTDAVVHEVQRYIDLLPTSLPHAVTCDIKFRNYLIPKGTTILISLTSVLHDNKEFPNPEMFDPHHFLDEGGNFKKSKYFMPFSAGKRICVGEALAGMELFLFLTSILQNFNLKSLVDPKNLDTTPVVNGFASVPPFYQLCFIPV

On to `CCN(CC1CCN(S(C)(=O)=O)CC1)[C@@H](C)Cc1ccc2c(c1)CCO2`, for which the kinact on CYP2D6 [1] is 0.38 s⁻¹. On Cytochrome P450 2D6 [2], this compound registered a Ki of 1.42 µM.

Consider `CC(O)CCC(=O)c1ccoc1` (centres undefined), for which, at Cytochrome P450 3A4 [3], the Partition ratio is on record as 257. The maximal inactivation rate constant (kinact) at CYP3A4 [4] was 0.0025 s⁻¹. On Cytochrome P450 3A4 [5], this compound gave a Ki of 20 µM.

Take `CC(C)(C)NC(=O)[C@@H]1CN(Cc2cnc3occc3c2)CCN1C[C@@H](O)C[C@@H](Cc1ccccc1)C(=O)N[C@H]1c2ccccc2C[C@H]1O`: the maximal inactivation rate constant (kinact) at CYP3A4 [6] is 0.027 s⁻¹; on CYP2D6 [9], 0.003 s⁻¹. The values for the Ki on Cytochrome P450 3A4 [7] and on Cytochrome P450 2D6 [10] were 7.5 µM and 32 µM, respectively. Further, the mechanism based inhibition entry was “Cytochrome P450 mechanistic inhibitor: PMID 8531125” on Cytochrome P450 3A4 [7] and “Cytochrome P450 mechanistic inhibitor: PMID 10757976” on Cytochrome P450 3A4 [8]. Also, at Cytochrome P450 3A4 [3], the Partition ratio stood at 1.4.

As to `O=C(O)COc1ccc(C(=O)c2cccs2)c(Cl)c1Cl`, the mechanism based inhibition entry at Cytochrome P450 2C9 is on record as “Cytochrome P450 mechanistic inhibitor: PMID 8944768”.

Take `CCCCc1oc2ccccc2c1C(=O)c1cc(I)c(OCCN(CC)CC)c(I)c1` [AMIODARONE]: the Ki turned out to be 1.5 µM on Cytochrome P450 2C8 [11] and 51.2 µM on Cytochrome P450 2C8 [13]. Besides, the kinact was 0.000483 s⁻¹ at CYP2C8 [12] and 0.00132 s⁻¹ on CYP2C8 [14].

Regarding `CN/C(=N/CCSCc1nc[nH]c1C)NC#N` [CIMETIDINE], at CYP2D6 [15], the kinact was 0.0005 s⁻¹. For the same compound, on Cytochrome P450 2D6 [16], the Ki turned out to be 77 µM.

Turning to `C#C[C@]1(O)C=C[C@H]2[C@@H]3CCC4=CC(=O)CC[C@@H]4[C@H]3CC[C@@]21CC` [GESTODENE], the values for the mechanism based inhibition result on Cytochrome P450 3A4 [17], on Cytochrome P450 3A4 [18] and on Cytochrome P450 3A4 [8] were “Cytochrome P450 mechanistic inhibitor: PMID 11012556”, “Cytochrome P450 mechanistic inhibitor: PMID 2133086” and “Cytochrome P450 mechanistic inhibitor: PMID 9385444”, respectively.

`COc1cc2c(c(OC)c1OC)-c1c(cc3c(c1OC)OCO3)C[C@H](C)[C@](C)(O)[C@H]2OC(=O)c1ccccc1` [GOMISIN C]: on CYP3A4 [19], the kinact was 0.00153 s⁻¹. This compound also registered a Ki at Cytochrome P450 3A4 [20] of 0.399 µM.
